Source: patent US8283349B2, “Fungicide N-(3-phenylpropyl) carboxamide derivatives” (Bayer Cropscience AG, priority 2007, dated 2012)

Tested on: Mycosphaerella graminicola
Assay: Cell test on Mycosphaerella graminicola
Type: cell-based
Conditions: under similar conditions (6 ppm, liquid medium, OD 620 nm); comparison compounds of the prior art
Procedure: The growth of Mycosphaerella graminicola is performed in a bactopeptone based liquid medium at 20° C. under shaking (120 rpm) during 72 hours. The bactopeptone based medium is prepared by mixing 14.6 grams of D-glucose, 1.4 grams of Yeast extract and 7.1 g of bacteriological peptone (OXOID ref. LP0037) in 1 liter of demineralized water. The medium is sterilized by autoclave 15 minutes at 121° C. After 72 hours, pre-culture of Mycosphaerella graminicola is recovered and the optic density (OD) at 620 nm is adjusted with the bactopeptone based medium at 0.5. The compounds are dissolved in DMSO and added to sterile liquid bactopeptone medium at a concentration of 6 ppm. The medium is inoculated with the pre-culture of Mycosphaerella graminicola by a dilution of 10 times of the pre-culture. The efficacy of the compounds is assessed by OD measurement at 620 nm after 4 days at 20° C. in comparison with a control.

| Compound | activity |
| --- | --- |
| COc1ccnc(C(=O)NCCC(c2ccccc2)c2ccccc2)c1O [compound 16, N-(3,3-diphenylpropyl)-3-hydroxy-4-methoxypyridine-2-carboxamide] | did not show any activity |
| COc1ccc(CCCNC(=O)c2c(-c3ccc(Cl)cc3)noc2C)cc1OC [compound 60, 3-(4-chlorophenyl)-N-[3-(3,4-dimethoxyphenyl)propyl]-5-methylisoxazole-4-carboxamide] | did not show any activity |
